Results as given in ChEMBL document CHEMBL5724806, “Unraveling interindividual differences and functional consequences of gut microbial metabolism of immunosuppressants” (2024).

How the values were obtained:
Assay type in all cases: ADME
[1] = The drug is tested on the gut metagenome community of T-01 with ENA study accession number: PRJEB31790 for biotransformation under anaerobic condition. The drug concentrations were measured over 7 timepoints collected between 0 and 12 hours of incubation by liquid-chromatography-coupled mass spectrometry (LC–MS); set-up: dose 5 uM, timepoint 0, 0.75, 1.5, 3, 6, 9, 12 hours; details: 5 µM
[2] = The drug is tested on Clostridium ramosum strain: DSM1402 for biotransformation under anaerobic condition. The drug concentrations were measured over 6 timepoints collected between 0 and 12 hours of incubation by liquid-chromatography-coupled mass spectrometry (LC–MS); set-up: dose 5 uM, timepoint 0, 1.5, 3, 6, 9, 12 hours; details: thomasclavelia ramosa, 5 µM
[3] = The drug is tested on the gut metagenome community of A-02 with ENA study accession number: PRJEB31790 for biotransformation under anaerobic condition. The drug concentrations were measured over 7 timepoints collected between 0 and 12 hours of incubation by liquid-chromatography-coupled mass spectrometry (LC–MS); set-up: dose 5 uM, timepoint 0, 0.75, 1.5, 3, 6, 9, 12 hours; details: 5 µM
[4] = The drug is tested on the gut metagenome community of A-04 with ENA study accession number: PRJEB31790 for biotransformation under microaerobic condition. The drug concentrations were measured over 7 timepoints collected between 0 and 12 hours of incubation by liquid-chromatography-coupled mass spectrometry (LC–MS); set-up: dose 5 uM, timepoint 0, 0.75, 1.5, 3, 6, 9, 12 hours; details: 5 µM
[5] = The drug is tested on Streptococcus mitis strain: DSM12643 for biotransformation under microaerobic condition. The drug concentrations were measured over 6 timepoints collected between 0 and 12 hours of incubation by liquid-chromatography-coupled mass spectrometry (LC–MS); set-up: dose 5 uM, timepoint 0, 1.5, 3, 6, 9, 12 hours; details: 5 µM
[6] = The drug is tested on Coprococcus comes strain: ATCC27758 for biotransformation under anaerobic condition. The drug concentrations were measured over 6 timepoints collected between 0 and 12 hours of incubation by liquid-chromatography-coupled mass spectrometry (LC–MS); set-up: dose 5 uM, timepoint 0, 1.5, 3, 6, 9, 12 hours; details: 5 µM
[7] = The drug is tested on the gut metagenome community of A-03 with ENA study accession number: PRJEB31790 for biotransformation under anaerobic condition. The drug concentrations were measured over 7 timepoints collected between 0 and 12 hours of incubation by liquid-chromatography-coupled mass spectrometry (LC–MS); set-up: dose 5 uM, timepoint 0, 0.75, 1.5, 3, 6, 9, 12 hours; details: 5 µM
[8] = The drug is tested on Lactobacillus gasseri strain: DSM20243 for biotransformation under microaerobic condition. The drug concentrations were measured over 6 timepoints collected between 0 and 12 hours of incubation by liquid-chromatography-coupled mass spectrometry (LC–MS); set-up: dose 5 uM, timepoint 0, 1.5, 3, 6, 9, 12 hours; details: 5 µM
[9] = The drug is tested on the gut metagenome community of P-04 with ENA study accession number: PRJEB31790 for biotransformation under microaerobic condition. The drug concentrations were measured over 7 timepoints collected between 0 and 12 hours of incubation by liquid-chromatography-coupled mass spectrometry (LC–MS); set-up: dose 5 uM, timepoint 0, 0.75, 1.5, 3, 6, 9, 12 hours; details: 5 µM
[10] = The drug is tested on Clostridium bolteae strain: DSM15670 for biotransformation under anaerobic condition. The drug concentrations were measured over 6 timepoints collected between 0 and 12 hours of incubation by liquid-chromatography-coupled mass spectrometry (LC–MS); set-up: dose 5 uM, timepoint 0, 1.5, 3, 6, 9, 12 hours; details: enterocloster bolteae, 5 µM
[11] = The drug is tested on Ruminococcus gnavus strain: ATCC29149 for biotransformation under anaerobic condition. The drug concentrations were measured over 6 timepoints collected between 0 and 12 hours of incubation by liquid-chromatography-coupled mass spectrometry (LC–MS); set-up: dose 5 uM, timepoint 0, 1.5, 3, 6, 9, 12 hours; details: mediterraneibacter gnavus, 5 µM
[12] = The drug is tested on Bacteroides fragilis strain: DSM2151 for biotransformation under anaerobic condition. The drug concentrations were measured over 6 timepoints collected between 0 and 12 hours of incubation by liquid-chromatography-coupled mass spectrometry (LC–MS); set-up: dose 5 uM, timepoint 0, 1.5, 3, 6, 9, 12 hours; details: 5 µM
[13] = The drug is tested on the gut metagenome community of P-01 with ENA study accession number: PRJEB31790 for biotransformation under anaerobic condition. The drug concentrations were measured over 7 timepoints collected between 0 and 12 hours of incubation by liquid-chromatography-coupled mass spectrometry (LC–MS); set-up: dose 5 uM, timepoint 0, 0.75, 1.5, 3, 6, 9, 12 hours; details: 5 µM
[14] = The drug is tested on the gut metagenome community of A-03 with ENA study accession number: PRJEB31790 for biotransformation under microaerobic condition. The drug concentrations were measured over 7 timepoints collected between 0 and 12 hours of incubation by liquid-chromatography-coupled mass spectrometry (LC–MS); set-up: dose 5 uM, timepoint 0, 0.75, 1.5, 3, 6, 9, 12 hours; details: 5 µM
[15] = The drug is tested on Gemella haemolysans strain: DSM107751 for biotransformation under microaerobic condition. The drug concentrations were measured over 6 timepoints collected between 0 and 12 hours of incubation by liquid-chromatography-coupled mass spectrometry (LC–MS); set-up: dose 5 uM, timepoint 0, 1.5, 3, 6, 9, 12 hours; details: 5 µM
[16] = The drug is tested on the gut metagenome community of T-04 with ENA study accession number: PRJEB31790 for biotransformation under microaerobic condition. The drug concentrations were measured over 7 timepoints collected between 0 and 12 hours of incubation by liquid-chromatography-coupled mass spectrometry (LC–MS); set-up: dose 5 uM, timepoint 0, 0.75, 1.5, 3, 6, 9, 12 hours; details: 5 µM
[17] = The drug is tested on Bacteroides uniformis strain: DSM6597 for biotransformation under anaerobic condition. The drug concentrations were measured over 6 timepoints collected between 0 and 12 hours of incubation by liquid-chromatography-coupled mass spectrometry (LC–MS); set-up: dose 5 uM, timepoint 0, 1.5, 3, 6, 9, 12 hours; details: 5 µM
[18] = The drug is tested on Lactobacillus ruminis strain: ATCC25644 for biotransformation under anaerobic condition. The drug concentrations were measured over 6 timepoints collected between 0 and 12 hours of incubation by liquid-chromatography-coupled mass spectrometry (LC–MS); set-up: dose 5 uM, timepoint 0, 1.5, 3, 6, 9, 12 hours; details: ligilactobacillus ruminis, 5 µM
[19] = The drug is tested on Streptococcus salivarius strain: DSM20560 for biotransformation under anaerobic condition. The drug concentrations were measured over 6 timepoints collected between 0 and 12 hours of incubation by liquid-chromatography-coupled mass spectrometry (LC–MS); set-up: dose 5 uM, timepoint 0, 1.5, 3, 6, 9, 12 hours; details: 5 µM
[20] = The drug is tested on Bacteroides caccae strain: DSM19024 for biotransformation under anaerobic condition. The drug concentrations were measured over 6 timepoints collected between 0 and 12 hours of incubation by liquid-chromatography-coupled mass spectrometry (LC–MS); set-up: dose 5 uM, timepoint 0, 1.5, 3, 6, 9, 12 hours; details: 5 µM
[21] = The drug is tested on Streptococcus salivarius strain: DSM20560 for biotransformation under microaerobic condition. The drug concentrations were measured over 6 timepoints collected between 0 and 12 hours of incubation by liquid-chromatography-coupled mass spectrometry (LC–MS); set-up: dose 5 uM, timepoint 0, 1.5, 3, 6, 9, 12 hours; details: 5 µM
[22] = The drug is tested on Bacteroides stercoris strain: HM 1036 for biotransformation under anaerobic condition. The drug concentrations were measured over 6 timepoints collected between 0 and 12 hours of incubation by liquid-chromatography-coupled mass spectrometry (LC–MS); set-up: dose 5 uM, timepoint 0, 1.5, 3, 6, 9, 12 hours; details: 5 µM
[23] = The drug is tested on Lactobacillus paracasei strain: ATCC27092 for biotransformation under anaerobic condition. The drug concentrations were measured over 6 timepoints collected between 0 and 12 hours of incubation by liquid-chromatography-coupled mass spectrometry (LC–MS); set-up: dose 5 uM, timepoint 0, 1.5, 3, 6, 9, 12 hours; details: lacticaseibacillus paracasei, 5 µM

COc1ccc([C@@H]2Sc3ccccc3N(CCN(C)C)C(=O)[C@@H]2OC(C)=O)cc1 [DILTIAZEM]
Bacterial Biotransformation [1]: Compound NOT metabolized
Bacterial Biotransformation [2]: Compound NOT metabolized
Bacterial Biotransformation [3]: Compound metabolized
Bacterial Biotransformation [4]: Compound metabolized
Bacterial Biotransformation [5]: Compound NOT metabolized
Bacterial Biotransformation [6]: Compound NOT metabolized
Bacterial Biotransformation [7]: Compound metabolized
Bacterial Biotransformation [8]: Compound metabolized
Bacterial Biotransformation [9]: Compound NOT metabolized
Bacterial Biotransformation [10]: Compound NOT metabolized
Bacterial Biotransformation [11]: Compound NOT metabolized
Bacterial Biotransformation [12]: Compound NOT metabolized
Bacterial Biotransformation [13]: Compound metabolized
Bacterial Biotransformation [14]: Compound metabolized
Bacterial Biotransformation [15]: Compound NOT metabolized
Bacterial Biotransformation [16]: Compound NOT metabolized
Bacterial Biotransformation [17]: Compound metabolized
Bacterial Biotransformation [18]: Compound NOT metabolized
Bacterial Biotransformation [19]: Compound NOT metabolized
Bacterial Biotransformation [20]: Compound NOT metabolized
Bacterial Biotransformation [21]: Compound metabolized
Bacterial Biotransformation [22]: Compound NOT metabolized
Bacterial Biotransformation [23]: Compound NOT metabolized

CO[C@H]1C[C@@H]2CC[C@@H](C)[C@@](O)(O2)C(=O)C(=O)N2CCCC[C@H]2C(=O)O[C@H]([C@H](C)C[C@@H]2CC[C@@H](OCCO)[C@H](OC)C2)CC(=O)[C@H](C)/C=C(\C)[C@@H](O)[C@@H](OC)C(=O)[C@H](C)C[C@H](C)/C=C/C=C/C=C/1C [EVEROLIMUS]
Bacterial Biotransformation [1]: Compound NOT metabolized
Bacterial Biotransformation [2]: Compound NOT metabolized
Bacterial Biotransformation [3]: Compound metabolized
Bacterial Biotransformation [4]: Compound metabolized
Bacterial Biotransformation [5]: Compound NOT metabolized
Bacterial Biotransformation [6]: Compound metabolized
Bacterial Biotransformation [7]: Compound metabolized
Bacterial Biotransformation [8]: Compound NOT metabolized
Bacterial Biotransformation [9]: Compound NOT metabolized
Bacterial Biotransformation [10]: Compound metabolized
Bacterial Biotransformation [11]: Compound NOT metabolized
Bacterial Biotransformation [12]: Compound NOT metabolized
Bacterial Biotransformation [13]: Compound NOT metabolized
Bacterial Biotransformation [14]: Compound metabolized
Bacterial Biotransformation [15]: Compound NOT metabolized
Bacterial Biotransformation [16]: Compound NOT metabolized
Bacterial Biotransformation [17]: Compound NOT metabolized
Bacterial Biotransformation [18]: Compound NOT metabolized
Bacterial Biotransformation [19]: Compound NOT metabolized
Bacterial Biotransformation [20]: Compound NOT metabolized
Bacterial Biotransformation [21]: Compound NOT metabolized
Bacterial Biotransformation [22]: Compound NOT metabolized
Bacterial Biotransformation [23]: Compound NOT metabolized

NS(=O)(=O)c1cc(C(=O)O)c(NCc2ccco2)cc1Cl [FUROSEMIDE]
Bacterial Biotransformation [1]: Compound NOT metabolized
Bacterial Biotransformation [2]: Compound NOT metabolized
Bacterial Biotransformation [3]: Compound NOT metabolized
Bacterial Biotransformation [4]: Compound NOT metabolized
Bacterial Biotransformation [5]: Compound NOT metabolized
Bacterial Biotransformation [6]: Compound NOT metabolized
Bacterial Biotransformation [7]: Compound NOT metabolized
Bacterial Biotransformation [8]: Compound NOT metabolized
Bacterial Biotransformation [9]: Compound NOT metabolized
Bacterial Biotransformation [10]: Compound NOT metabolized
Bacterial Biotransformation [11]: Compound NOT metabolized
Bacterial Biotransformation [12]: Compound NOT metabolized
Bacterial Biotransformation [13]: Compound NOT metabolized
Bacterial Biotransformation [14]: Compound NOT metabolized
Bacterial Biotransformation [15]: Compound NOT metabolized
Bacterial Biotransformation [16]: Compound NOT metabolized
Bacterial Biotransformation [17]: Compound NOT metabolized
Bacterial Biotransformation [18]: Compound NOT metabolized
Bacterial Biotransformation [19]: Compound NOT metabolized
Bacterial Biotransformation [20]: Compound NOT metabolized
Bacterial Biotransformation [21]: Compound NOT metabolized
Bacterial Biotransformation [22]: Compound NOT metabolized
Bacterial Biotransformation [23]: Compound NOT metabolized
